The text below walks through data of US5719287A, “Intermediates for inhibitors of HIV protease and method of preparation thereof” (Eli Lilly and Company, priority 1995, dated 1998).

The term IC50 denotes the concentration at which inhibition is half-maximal.

Experiment [1] has as its target T1, HIV-1 protease (Human immunodeficiency virus type 1 group M subtype B, UniProt P04585).
T1 construct: Purified HIV-1 protease was obtained as described below; made in house; host or cells: E. coli K12 L507/pHP10D (NRRL B-18560)
Put plainly: biochemical. To be noted: read-out: Fluorescence Assay IC50 (converted). The method, boiled down: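 Purified recombinant HIV-1 protease from E. coli preincubated 1 h at room temperature with compound in 20% aqueous DMSO, then biotin-peptide-FITC substrate added in MES-ALB buffer for 16 h at room temperature. Cleavage measured by avidin-bead capture, fluorescence ex 485/em 535 nm.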

The target in experiment [2] is T1, HIV-1 protease. Put plainly: Western Blot Analysis of HIV Protease Inhibition Assay (HIV-1 protease produced in E. coli, processing of gag polyprotein Pr48^gag). In kind it is biochemical. Conditions: yield of p17 from gag polyprotein; 30 min preincubation at room temperature, one hour at 37° C. The method, then: The compounds of the present invention were also tested for their ability to block HIV protease processing of Pr48^gag (a recombinant polyprotein containing p 17, p24 and p7).
A. Culture of E. coli K12 L507/DHP10D
Lyophils of E. coli K12 L507/pHP10D are obtained from the Northern Regional Research Laboratory, Peoria, Ill. 61604, under the accession number NRRL B-18560 (deposited Nov. 14, 1989). The lyophils are decanted into tubes containing 10 ml LB medium (10 g Bacto-tryptone, 5 g Bacto-yeast extract, and 10 g NaCl per liter; pH is adjusted to 7.5) and incubated at 32° C., overnight.
A small portion of the overnight culture was placed on LB-agar (LB medium with 15 g/l Bacto-agar) plates containing 12.5 μg/ml tetracycline in a manner so as to obtain a single colony isolate of E. coli K12 L507/pHP10D.The single colony obtained was inoculated into 10 ml of LB medium containing 12.5 μg/ml tetracycline and incubated overnight at 32° C. with vigorous shaking. The 10 ml overnight culture was inoculated into LB medium containing 12.5 μg/ml tetracycline and incubated at 32° C. with vigorous shaking until the culture reached mid-log phase.
B. Culture of E. coli K12 L507/pHGAG
Lyophils of E. coli K12 L507/pHGAG are obtained from the NRRL under the accession number NRRL B-18561 (deposited Nov. 14, 1989). A purified colony of E. coli K 12 L507/pHGAG was isolated, and used as an inoculum for a culture which was grown to mid-log phase in substantial accordance with the teaching of Step A above for E. Coli K12 L507/pHP10D.
C. Preparation of Protease and gag fractions
A culture of E. coli K12 L507/pHP10D was grown to mid-log phase at 32° C. in LB media containing 12.5 μg/ml tetracycline. The cultivation temperature was quickly elevated to 40° C. to induce gene expression, and the cells were allowed to grow for 2.5 hours at this temperature before the culture was quickly chilled on ice. The cells were centrifuged and the cell pellet was resuspended in 20 ml 50 mmol MES buffer (pH 6.0) containing 1 mmol EDTA, 1 mmol DTT, 1 mmol PMSF, and 10% glycerol (Buffer A). Cells were lysed by sonication using a Fischer Model 300 Dismembrator and a microtip probe. […] Enzymatic activity was measured by HPLC using the synthetic peptide SQNYPIV as described in Margolin et al., Biochem. Biophys. Res. Commun., 167, 554-560 (1990); the production of the pl peptide (SQNY) was measured.
Active fractions were pooled, made 1.2M in ammonium sulfate, and applied to a hexyl agarose column (2.0×18 cm) equilibrated in Buffer A containing 1.2M ammonium sulfate. The sample, in 125 ml (1.85 mg/ml), was loaded at a flow rate of 1 ml/min at 4° C. […] The column was then washed isocratically in Buffer A for 120 min. Active fractions were pooled, concentrated to 10 ml using an Amicon stirred cell with a YM-10 membrane, and applied at 1 ml/min to a MonoS cation exchange column (1.0×10 cm) equilibrated in Buffer A. After washing isocratically for 30 min, protease was eluted using a linear gradient of 0-0.45M NaCl in Buffer A over 40 min followed by an isocratic wash with Buffer A containing 0.45M NaCl over 30 min. Chromatography was performed at 25° C.
Pooled active fractions were concentrated to 200 ul using an Amicon stirred cell and a YM-10 membrane, and the protease was then applied to a Superose 6 size exclusion column equilibrated in Buffer A containing 0.1M NaCl. The column was washed isocratically in this buffer at a flow rate of 0.5 ml/min.
QAE-Sepharose, and hexyl agarose were purchased from Sigma Chemical Company. Superose 6 and MonoS were products of Pharmacia. Buffers and reagents were obtained from Sigma.
In an analogous manner, a culture of E. coli K12 507/pHGAG was grown to mid-log phase at 32° C. then shifted to 40° C. for about 4 to 5 hours. The culture was chilled on ice and centrifuged, then the pellet was resuspended in 8 ml lysis buffer containing 5 mg/ml lysozyme.
(In western blotting, separated proteins are transferred to a membrane and probed.)

[3] abbreviates: purified HIV-1 protease, MES-ALB buffer pH 5.5, 1 h preincubation, 16 h with substrate, room temperature, IC50 values for Examples 2-70 are standardized relative to Ex 1.

On to `CCC(C)(C)NC(=O)c1ccccc1C[C@@H](O)[C@H](Cc1ccccc1)NC(=O)[C@H](CC(N)=O)NC(=O)c1ccc2ccccc2n1` [Example 8, [1S-(1R*, 4R*, 5S*)]-N-(1-(2-amino-2-oxoethyl)-2-oxo-3-aza-4-phenylmethyl-5-hydroxy-6-(2-(1-(1.1-dimethylpropylamino)-1-oxomethyl)phenyl)hexyl)-2-quinolinyl carboxamide], for which the results for the half-maximal inhibitory concentration (IC50) in experiment [1] and in experiment [2] were 4.81 nM and 1.5 nM, respectively.
Taken in the same sequence, the figures for `CC(C)(C)NC(=O)c1ccccc1C[C@@H](O)[C@H](Cc1ccccc1)NC(=O)[C@H](CC(N)=O)NC(=O)c1nc2ccccc2[nH]1` [Example 14, [1S-(1R*, 4R*, 5S*)]-N-(1-(2-amino-2-oxoethyl)-2-oxo-3-aza-4-phenylmethyl-5-hydroxy-6-(2-(1-t-butylamino-1-oxomethyl)phenyl)hexyl)-2-benzimidazolyl carboxamide] were 142 nM and 100 nM.
Regarding `Cc1ccc(C[C@@H](O)[C@H](Cc2ccccc2)NC(=O)[C@H](CC(N)=O)NC(=O)c2ccc3ccccc3n2)c(C(=O)NC(C)(C)C)c1` [Example 2, [1S-(1R*, 4R*, 5S*)]-N-(1-(2-amino-2-oxoethyl)-2-oxo-3-aza-4-phenylmethyl-5-hydroxy-6-(2-(1-t-butylamino-1-oxomethyl)-4-methylphenyl)hexyl)-2-quinolinyl carboxamide], the results for the IC50 in experiment [1] (setting [3]) and in experiment [2] were 3.37 nM and 50 nM, respectively.
For `CC(C)(C)NC(=O)c1ccccc1C[C@@H](O)[C@H](Cc1ccccc1)NC(=O)[C@H](Cc1cnc[nH]1)NC(=O)c1ccc2ccccc2n1` [Example 17, [1S-(1R*, 4R*. 5S*)]-N-(1-(4-imidazolylmethyl)-2-oxo-3-aza-4-phenylmethyl-5-hydroxy-6-(2-(1-t-butylamino-1-oxomethyl)phenyl)hexyl)-2-quinolinyl carboxamide], the half-maximal inhibitory concentration (IC50) is 1.9 nM in experiment [1] and 0.5 nM in experiment [2].
With `Cc1cccc(C[C@@H](O)[C@H](Cc2ccccc2)NC(=O)[C@H](CC(N)=O)NC(=O)c2ccc3ccccc3n2)c1C(=O)NC(C)(C)C` [Example 3, [1S-(1R*, 4R*, 5S*)]-N-(1-(2-amino-2-oxoethyl)-2-oxo-3-aza-4-phenylmethyl-5-hydroxy-6-(2-(1-t-butylamino-1-oxomethyl)-3-methylphenyl)hexyl)-2-quinolinyl carboxamide], the half-inhibitory concentration (IC50) is 28.9 nM in experiment [1] and 60 nM in experiment [2].
As for `CC(C)(C)NC(=O)c1c(C[C@@H](O)[C@H](Cc2ccccc2)NC(=O)[C@H](CC(N)=O)NC(=O)c2ccc3ccccc3n2)ccc2ccccc12` [Example 4, [1S-(1R*, 4R*, 5S*)]-N-(1-(2-amino-2-oxoethyl)-2-oxo-3-aza-4-phenylmethyl-5-hydroxy-6-(1-(1-t-butylamino-1-oxomethyl)-2-naphthyl)hexyl)-2-quinolinyl carboxamide], the concentration for half-maximal inhibition (IC50) in experiment [1] is 4.4 nM; in experiment [2], 2.7 nM.
On to `CC(C)(C)NC(=O)c1ccccc1C[C@@H](O)[C@H](Cc1ccccc1)NC(=O)[C@H](CC(N)=O)NC(=O)COc1cccc2ccccc12` [Example 15, [2R-(2R*, 3S*, 6S*)]-N-t-butyl-2-(2-hydroxy-3-phenylmethyl-4,7-diaza-5,8,-dioxo-6-(2-amino-2-oxoethyl)-9-(naphthyloxy)nonyl)benzamide], for which the half-maximal inhibitory concentration (IC50) is 4.23 nM in experiment [1] (setting [3]) and 1.6 nM in experiment [2].
For the molecule `CC(C)[C@H](NC(=O)c1ccc2ccccc2n1)C(=O)N[C@@H](Cc1ccccc1)[C@H](O)Cc1ccccc1C(=O)NC(C)(C)C` [Example 16, [1S-(1R*, 4R*, 5S*)]-N-(1-(2-propyl)-2-oxo-3-aza-4-phenylmethyl-5-hydroxy-6-(2-(1-t-butylamino-1-oxomethyl)phenyl)hexyl)-2-quinolinyl carboxamide], the IC50 in experiment [1] is 57.2 nM; in experiment [2], 1 nM.
